Measured values taken from PubChem BioAssay (NCI).
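GI50 marks 50% less growth. At the TGI there is no net growth.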

What was measured:
Assay in all cases: NCI anticancer screen, dose series, 384-well format
MCF7 breast = test system: MCF7 breast
U251 glioblastoma = test system: U251 glioblastoma
SF-295 CNS = test system: SF-295 CNS
SK-MEL-28 melanoma = test system: SK-MEL-28 melanoma
NCI/ADR-RES ovarian = test system: NCI/ADR-RES ovarian
HCT-116 colon = test system: HCT-116 colon
KM12 colon = test system: KM12 colon
HOP-92 NSCLC = test system: HOP-92 NSCLC
OVCAR-8 ovarian = test system: OVCAR-8 ovarian
RPMI-8226 leukemia = test system: RPMI-8226 leukemia
SNB-19 CNS = test system: SNB-19 CNS
LOX IMVI melanoma = test system: LOX IMVI melanoma
CCRF-CEM leukemia = test system: CCRF-CEM leukemia
BT-549 breast = test system: BT-549 breast
NCI-H226 lung = test system: NCI-H226 lung
UO-31 renal = test system: UO-31 renal
SK-OV-3 ovarian = test system: SK-OV-3 ovarian
SNB-75 CNS = test system: SNB-75 CNS
COLO 205 colon = test system: COLO 205 colon
HOP-62 NSCLC = test system: HOP-62 NSCLC
SF-268 CNS = test system: SF-268 CNS
SN12C renal = test system: SN12C renal
ACHN renal = test system: ACHN renal
NCI-H23 lung = test system: NCI-H23 lung
M14 melanoma = test system: M14 melanoma
MDA-MB-468 breast = test system: MDA-MB-468 breast
UACC-62 melanoma = test system: UACC-62 melanoma
HT29 colon = test system: HT29 colon
MDA-MB-231 breast = test system: MDA-MB-231 breast
RXF 393 renal = test system: RXF 393 renal
MDA-MB-435 melanoma = test system: MDA-MB-435 melanoma
786-0 renal = test system: 786-0 renal
MALME-3M melanoma = test system: MALME-3M melanoma
HS 578T breast = test system: HS 578T breast
OVCAR-5 ovarian = test system: OVCAR-5 ovarian
TK-10 renal = test system: TK-10 renal
K-562 leukemia = test system: K-562 leukemia
HCT-15 colon = test system: HCT-15 colon
CAKI-1 renal = test system: CAKI-1 renal
A498 renal = test system: A498 renal
OVCAR-3 ovarian = test system: OVCAR-3 ovarian
HCC-2998 colon = test system: HCC-2998 colon
OVCAR-4 ovarian = test system: OVCAR-4 ovarian
MOLT-4 leukemia = test system: MOLT-4 leukemia
SK-MEL-5 melanoma = test system: SK-MEL-5 melanoma
EKVX NSCLC = test system: EKVX NSCLC
DU-145 prostate = test system: DU-145 prostate
PC-3 prostate = test system: PC-3 prostate
IGROV1 ovarian = test system: IGROV1 ovarian
UACC-257 melanoma = test system: UACC-257 melanoma
SF-539 CNS = test system: SF-539 CNS
NCI-H460 NSCLC = test system: NCI-H460 NSCLC
SW-620 colon = test system: SW-620 colon
NCI-H322M lung = test system: NCI-H322M lung

`CCN(CCO)CCCOc1ccc2c(Nc3cc(CC(=O)Nc4cccc(F)c4)[nH]n3)ncnc2c1` gave a GI50 (MCF7 breast) of 2.69 µM, a TGI (MCF7 breast) of 18.2 µM and a GI50 (U251 glioblastoma) of 12 µM. It also gave a TGI (U251 glioblastoma) of 24.4 µM, a GI50 (SF-295 CNS) of 13.8 µM and a TGI (SF-295 CNS) of 29.2 µM. The GI50 (SK-MEL-28 melanoma) was 15.5 µM, the TGI (SK-MEL-28 melanoma) was 29 µM and the GI50 (NCI/ADR-RES ovarian) was > 100 µM. For the same molecule, the TGI (NCI/ADR-RES ovarian) was > 100 µM, the GI50 (HCT-116 colon) was 8.43 µM and the TGI (HCT-116 colon) was 21.4 µM. It also gave a GI50 (KM12 colon) of 3.46 µM, a TGI (KM12 colon) of 14.6 µM and a GI50 (HOP-92 NSCLC) of 8.99 µM. For the same molecule, the TGI (HOP-92 NSCLC) was 21.2 µM, the GI50 (OVCAR-8 ovarian) was 14.7 µM and the TGI (OVCAR-8 ovarian) was 28.9 µM. The GI50 (RPMI-8226 leukemia) was 7.83 µM, the TGI (RPMI-8226 leukemia) was 21.2 µM and the GI50 (SNB-19 CNS) was 11.7 µM. For the same molecule, the TGI (SNB-19 CNS) was 24.1 µM, the GI50 (LOX IMVI melanoma) was 10.2 µM and the TGI (LOX IMVI melanoma) was 21.8 µM. The GI50 (CCRF-CEM leukemia) was < 0.01 µM, the GI50 (BT-549 breast) was 12 µM and the TGI (BT-549 breast) was 24.4 µM. The GI50 (NCI-H226 lung) was 14.4 µM, the TGI (NCI-H226 lung) was 36.4 µM and the GI50 (UO-31 renal) was > 100 µM. For the same molecule, the TGI (UO-31 renal) was > 100 µM, the GI50 (SK-OV-3 ovarian) was 9.32 µM and the TGI (SK-OV-3 ovarian) was 21.4 µM. It also gave a GI50 (SNB-75 CNS) of 15.1 µM, a TGI (SNB-75 CNS) of 28.4 µM and a GI50 (COLO 205 colon) of 0.0236 µM. It also gave a TGI (COLO 205 colon) of 0.0915 µM, a GI50 (HOP-62 NSCLC) of 11.7 µM and a TGI (HOP-62 NSCLC) of 24.1 µM. For the same molecule, the GI50 (SF-268 CNS) was < 0.01 µM, the TGI (SF-268 CNS) was 4.6 µM and the GI50 (SN12C renal) was 10.8 µM. The TGI (SN12C renal) was 23.4 µM, the GI50 (ACHN renal) was > 100 µM and the TGI (ACHN renal) was > 100 µM. For the same molecule, the GI50 (NCI-H23 lung) was 11.8 µM, the TGI (NCI-H23 lung) was 25.1 µM and the GI50 (M14 melanoma) was 13.3 µM. The TGI (M14 melanoma) was 26.6 µM, the GI50 (MDA-MB-468 breast) was 0.0155 µM and the TGI (MDA-MB-468 breast) was 4.03 µM. For the same molecule, the GI50 (UACC-62 melanoma) was 13.9 µM, the TGI (UACC-62 melanoma) was 26.9 µM and the GI50 (HT29 colon) was 13.2 µM. The TGI (HT29 colon) was 26.2 µM, the GI50 (MDA-MB-231 breast) was 12 µM and the TGI (MDA-MB-231 breast) was 24.5 µM. It also gave a GI50 (RXF 393 renal) of 0.0465 µM, a TGI (RXF 393 renal) of 20.6 µM and a GI50 (MDA-MB-435 melanoma) of 13.4 µM. The TGI (MDA-MB-435 melanoma) was 26.3 µM, the GI50 ([…]-0 renal) was 16 µM and the TGI (786-0 renal) was 31.7 µM. For the same molecule, the GI50 (MALME-3M melanoma) was 11.3 µM, the TGI (MALME-3M melanoma) was 23.4 µM and the GI50 (HS 578T breast) was 0.0205 µM. For the same molecule, the TGI (HS 578T breast) was 18.5 µM, the GI50 (OVCAR-5 ovarian) was 18.1 µM and the TGI (OVCAR-5 ovarian) was 51.2 µM. For the same molecule, the GI50 (TK-10 renal) was 32.5 µM, the TGI (TK-10 renal) was > 100 µM and the GI50 (K-562 leukemia) was 10.1 µM. The TGI (K-562 leukemia) was 22.7 µM, the GI50 (HCT-15 colon) was > 100 µM and the TGI (HCT-15 colon) was > 100 µM. For the same molecule, the GI50 (CAKI-1 renal) was 11.7 µM, the TGI (CAKI-1 renal) was 26.4 µM and the GI50 (A498 renal) was 29.8 µM. The TGI (A498 renal) was > 100 µM, the GI50 (OVCAR-3 ovarian) was 1.63 µM and the TGI (OVCAR-3 ovarian) was 14.7 µM. The GI50 (HCC-2998 colon) was 12.8 µM, the TGI (HCC-2998 colon) was 25.4 µM and the GI50 (OVCAR-4 ovarian) was 12.2 µM. The TGI (OVCAR-4 ovarian) was 26.5 µM, the GI50 (MOLT-4 leukemia) was < 0.01 µM and the GI50 (SK-MEL-5 melanoma) was 11.4 µM. The TGI (SK-MEL-5 melanoma) was 24.8 µM, the GI50 (EKVX NSCLC) was 14 µM and the TGI (EKVX NSCLC) was 41.7 µM. The GI50 (DU-145 prostate) was 27.7 µM, the TGI (DU-145 prostate) was 92 µM and the GI50 (PC-3 prostate) was 15.1 µM. For the same molecule, the TGI (PC-3 prostate) was 28.6 µM, the GI50 (IGROV1 ovarian) was 11.6 µM and the TGI (IGROV1 ovarian) was 24.9 µM. The GI50 (UACC-257 melanoma) was 14.7 µM, the TGI (UACC-257 melanoma) was 27.9 µM and the GI50 (SF-539 CNS) was 2.31 µM. It also gave a TGI (SF-539 CNS) of 19.1 µM, a GI50 (NCI-H460 NSCLC) of 0.0403 µM and a TGI (NCI-H460 NSCLC) of 16.9 µM. For the same molecule, the GI50 (SW-620 colon) was 13.7 µM, the TGI (SW-620 colon) was 28.9 µM and the GI50 (NCI-H322M lung) was 16.2 µM. It also gave a TGI (NCI-H322M lung) of 38.5 µM.
